Measured values taken from the METLIN SMRT retention time set (Domingo-Almenara et al. 2019).

Experiment: gradient 5% acetonitrile 3 min, to 50% in 2 min, to 85% in 15 min, held 3 min, 100 µL/min
Details: column: Zorbax Extend-C18 2.1 x 50 mm; eluents: water / acetonitrile, 0.1% formic acid
Outline: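 In both positive and negative ionization mode, a quadrupole time-of-flight mass spectrometer coupled to HPLC analyzed pure standards run in mixtures of ~100 molecules. The Zorbax Extend-C18 column (2.1 × 50 mm, 1.8 μm) was operated at 100 μL/min with water and acetonitrile, each containing 0.1% formic acid. The dead volume was 40 μL and the dwell volume 900 μL. Retention time came from adduct peaks that were computationally picked and individually inspected by hand.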

SMILES | RP-LC retention time [s]
Cc1ccc(-c2cc(NC(=O)c3cccc(N(C)C)c3)on2)s1 | 1050
O=C(Cn1nc2n(c1=O)CCCC2)Nc1cccc(Br)c1 | 686
CCn1cc(-c2nc(CC(=O)Nc3ccc(F)c(C)c3)cs2)c2cccnc21 | 902
Cn1nc(C(=O)N2CCCC(C(=O)NC3CC3)C2)c2c1CCN(C(=O)c1c(F)cccc1F)C2 (stereo unspecified) | 660
COc1ccc(NC(=O)N2CCCC2c2nc(-c3ccccc3OC)no2)c(C)c1 (stereo unspecified) | 809
CCc1cccc(C)c1NC(=O)C1CCN(S(=O)(=O)c2c(C)nn(-c3ccccc3)c2C)CC1 | 976
CCOC(=O)CNC(=O)NCc1cccn1Cc1ccccc1 | 793
Cc1cccc2nnc(N3CCN(C(=O)c4cccc(Br)c4)CC3)n12 | 683
Cc1ccccc1OCC(=O)N1CC2CN(S(=O)(=O)c3ccc(F)cc3)CC(C1)O2 | 903
O=C(Nc1ccc(N2CCN(c3ccccc3)C2=O)nc1)c1ccc(Cl)cc1 | 1010
Cc1cc(-c2nnc(-c3ccco3)o2)c(C)n1CC(=O)NCc1cc(F)cc(F)c1 | 852
CN(C)C(=O)c1ccc2c(c1)nc(CN1CCN(C(=O)c3ccco3)CC1)n2C | 575
O=C(Nc1ccc(C(=O)N2CCOCC2)cc1)c1cnn2c(C(F)F)cc(-c3ccccc3)nc12 | 892
CCc1nnc2ccc(-c3noc(-c4ccc(F)cc4F)n3)cn12 | 879
O=C(Nc1cccc(-c2nnc3n2CCCC3)c1)C1CC1 | 601
O=C(Cc1ccccc1Cl)N1CCc2cc(-c3ccno3)ccc21 | 1020
COc1ccccc1OCCC1CCN(S(=O)(=O)c2c(C)nn(C)c2C)C1 (stereo unspecified) | 861
CC1CCCN(C(=O)C2CCN(S(=O)(=O)c3ccc4c(c3)CCCC(=O)N4)CC2)C1 (stereo unspecified) | 731
COc1ccc(Cn2nc3ccc(S(=O)(=O)N4CCCCCC4)cn3c2=O)cc1F | 681
N#CC1=C(SCC(=O)NCc2ccccc2)NC(=O)CC1c1cccc([N+](=O)[O-])c1 (stereo unspecified) | 803
CCc1ccccc1NC(=O)Cn1nc(N2CCOCC2)c2ccccc2c1=O | 744
COc1ccc(-n2c(=O)c3sccc3n(Cc3nc(-c4ccc(F)c(Cl)c4)no3)c2=O)cc1 | 1040

SMILES | RP-LC retention time [s]
COc1ccc(OC)c(NC(=O)N2CCN(Cc3nc4cc(C)ccc4o3)CC2)c1 | 721
O=C(Cc1ccc(F)cc1)NCC(=O)N1CCOC(c2ccccc2)C1 (stereo unspecified) | 646
COc1ccc(-c2nc3cnccn3c2Nc2ccc(C(=O)NCC3CCCO3)cc2)cc1 (stereo unspecified) | 649
Fc1ccc(CN2CCc3nc(N4CCN(c5ccccc5F)CC4)ncc3C2)c(F)c1 | 795
O=C(NCCc1ccco1)c1ccc2cnn(Cc3ccc(F)cc3)c2c1 | 873
CC(C)(C)c1ccc(O)c(NC(=O)c2cn(-c3ccc(S(=O)(=O)N4CCCCC4)cc3)cn2)c1 | 1100
COc1ccc(C2Cn3nnc(C(=O)N4CCC(C(=O)NC5CC5)CC4)c3CO2)cc1 (stereo unspecified) | 699
O=C(NCCn1nc(-n2cccn2)ccc1=O)C1(c2ccccc2)CCOCC1 | 635
CNC(=O)N1CCCC(c2cccc(C(=O)NCc3ccc(F)cc3F)c2)C1 (stereo unspecified) | 775
CC(C)Cc1nc(CNC(=O)c2coc(C3CC3)n2)no1 | 808
CCN(CC)C(=O)c1ccc2c(c1)N(CC(=O)NCCN1CCCCCC1)C(=O)CO2 | 603
CCOC(=O)c1c(S(=O)(=O)N2CCC(C(=O)NC3CCCCCC3)CC2)c(C)n(C)c1C | 877
CN1CCCc2cc(C(=O)N3CCC4(CC3)OCCO4)sc21 | 796
CCCCC(=O)Nc1nc(-c2ccc3c(c2)NC(=O)CO3)c(C)s1 | 839
CCC(=O)N1CCCc2cc(NC(=O)COc3ccc(F)cc3)ccc21 | 850
O=C(c1ccoc1)N1CCN(C(=O)c2nnn3c2COC(c2ccccc2)C3)CC1 (stereo unspecified) | 767
CCOc1ccc(-c2cn3ccn(-c4cc(Cl)ccc4C)c(=O)c3n2)cc1 | 934
CCc1ccc2[nH]c3c(c(=O)c2c1)CN(CC(=O)NCc1ccc(OC)cc1)CC3 | 612
COc1ccc(-c2ncccc2CNS(=O)(=O)c2ccc(Br)cc2)cc1 | 733
COc1ccc(OC)c(NC(=O)Cn2c(=O)nc(NC3CCCC3)c3ccccc32)c1 | 740
NC(=O)C1CCN(Cc2cc(-c3ccc(F)cc3)n[nH]2)CC1 | 571
O=C(NC1CCN(c2cc(-c3ccccc3)[nH]n2)C1)c1ccc2c(c1)OCO2 (stereo unspecified) | 648

SMILES | RP-LC retention time [s]
CCC(C)N(CC(=O)N(Cc1ccco1)CC1CCCO1)C(=O)c1ccc(OC)cc1 (stereo unspecified) | 808
CCOc1ccc(CNC(=O)COc2nc(CC)nc3oc(C)c(C)c23)cc1 | 993
CCOc1ccc(NC(=O)C2CCN(S(=O)(=O)c3ccc4c(c3)sc(=O)n4CC)CC2)cc1 | 924
Cc1ccc(OCC(=O)Nc2cc3c(cc2N2CCOCC2)n(C)c(=O)c(=O)n3C)c(C)c1 | 787
Cc1ccc(Sc2nccnc2N2CCCC(C(=O)NC(C)c3ccccc3)C2)cc1 (stereo unspecified) | 1140
CC(C)(C)OC(=O)Cn1cnc2c(-c3cccc(Cl)c3)csc2c1=O | 1130
CCc1ccccc1NC(=O)Cn1cnc2nc(N3CCCC(C(=O)NC4CC4)C3)sc2c1=O (stereo unspecified) | 692
CC1CCN(S(=O)(=O)c2cc(-c3nnc(C4CCC4)o3)co2)CC1 | 999
CC1(C(=O)NCc2ccccc2)CCCN(C(=O)Nc2ccc(Cl)cc2)C1 (stereo unspecified) | 962
CNC(=O)c1c(C)nn(-c2ccccc2)c1-n1cccc1 | 761
CC1CCN(S(=O)(=O)c2ccc3nn(CCc4ccccc4)c(=O)n3c2)CC1 | 1020
CNC(=O)C1CCCN(c2nc3ncn(CC(=O)NCCc4ccc(Cl)cc4)c(=O)c3s2)C1 (stereo unspecified) | 681
O=c1ccc(-c2ccccc2)nn1CCc1nc(-c2ccc(F)cc2)no1 | 970
CCCN(C(=O)Nc1ccc(CC)cc1)c1nc(-c2ccc(C3CCCCC3)cc2)cs1 | 619
NCCc1ccc(S(=O)(=O)F)cc1 | 653
COc1ccccc1-c1nc(-c2ccc(S(=O)(=O)N3CCC(C)CC3)cc2)no1 | 1290
CC(NC(=O)C1=CCN(Cc2ccccc2)CC1)c1ccccc1 (stereo unspecified) | 639
Cc1nncn1C1CN(C(=O)c2cc3ccccc3[nH]2)C1 | 623
COc1ccc(NC(=O)N(C)CCc2noc(COc3cc(C)cc(C)c3)n2)cc1 | 907
Cc1cc(C(=O)O)c2cc(F)ccc2n1 | 486
Cc1ccc(NC(=O)Cn2nc3n(c2=O)CCCCC3)cc1F | 734
CCc1cccc(Nc2nc3ccncc3n(Cc3ccccc3)c2=O)c1 | 742
